Assay results taken from patent US20060276537A1, “Use of ladostigil for the treatment of multiple sclerosis” (priority 2005, published 2006).
Marks after values point to notes of the source that are not given here.

What was measured:
Type in all cases: in vivo
[1] = Body weight of the EAE mice (Table 7)
Excerpt: These differences were statistically significant (p<0.000, Manova). According to the subsequent Post Hoc comparison (LSD), all the groups were different from the control (Table 7). […] On day 14, four days after the onset of the disease, sick mice lost an average of 2 g of weight. The average mean weight of GA-blocked mice was reduced by only 0.4 g. On day 23 the control group reached the lowest weight, 14.6 g.

[2] = tested on: acetylcholinesterase (AChE); assay: Cholinesterase assay (modified Ellman, ATC substrate) in brain and blood of treated EAE mice; conditions: for Blood AChE U/ml / Blood AchE % inhibition: blood of EAE mice; for Brain AChE U/g (Total ChE) / Brain AchE % inhibition: brain of EAE mice
Experimental: From the mice of Example 2, acetylcholinesterase (AChE) and butyrylcholinesterase (BChE) activities were determined by a modification of Ellman's spectophotometric method using acetyltiocholine (ATC) and butyryltiocholine (BTC) as substrates.
Homogenate of 100 mg brain tissue in 1 ml 100 mM phosphate buffer pH=8.0 was prepared. 0.4 ml of crude homogenate was added to 1.2 ml pre-warmed 4 mM 5,5′-Dithiobis(2-nitrobenzoic acid) (DTNB or Ellman's reagant); 30 μl from this mixture were added to 210 μl pre-warmed (28° C.) 50 mM phosphate buffer in a microplate; and the reaction was started by addition of 10 μl ATC or BTC (final concentration=1 mM) or water (for the blank reaction) The increase in optical density (OD) at 412 nm was monitored for 3 minutes and the slope of the straight line obtained by linear regression provided the activity in terms of ΔOD/min using SOFTMAX® software. Blank reaction was subtracted.
Conversion of ΔOD/min into Enzyme Activity was Performed as Follows: Unit enzyme/gram tissue=OD/min*0.25/10.54*4*1000/30*11
The same procedure was performed as with brain homogenate using 50 μl of ¼ hemolysate/DTNB mixture.
Enzyme activity in the blood was calculated in units/1 ml whole blood.
AChE activity was calculated as follows: AChE activity=ΔOD/min (determined with ATC)−ΔOD/min (determined with BTC)/0.7
0.7=BChE activity on BTC/BChE activity on ATC. It was determined by using 1.25-10^−6M BW281C51 to inhibit AChE and with ATC and BTC as substrates.

MAO-A = molecular target: T1, MAO-A (Mus musculus, UniProt Q64133); assay: MAO assay (14C 5-HT substrate) in brains of treated EAE mice
T1 construct: in the brains of EAE mice; from tissue; host or cells: brain homogenate of ladostigil-treated EAE mice
T1 sequence (Q64133 1-526): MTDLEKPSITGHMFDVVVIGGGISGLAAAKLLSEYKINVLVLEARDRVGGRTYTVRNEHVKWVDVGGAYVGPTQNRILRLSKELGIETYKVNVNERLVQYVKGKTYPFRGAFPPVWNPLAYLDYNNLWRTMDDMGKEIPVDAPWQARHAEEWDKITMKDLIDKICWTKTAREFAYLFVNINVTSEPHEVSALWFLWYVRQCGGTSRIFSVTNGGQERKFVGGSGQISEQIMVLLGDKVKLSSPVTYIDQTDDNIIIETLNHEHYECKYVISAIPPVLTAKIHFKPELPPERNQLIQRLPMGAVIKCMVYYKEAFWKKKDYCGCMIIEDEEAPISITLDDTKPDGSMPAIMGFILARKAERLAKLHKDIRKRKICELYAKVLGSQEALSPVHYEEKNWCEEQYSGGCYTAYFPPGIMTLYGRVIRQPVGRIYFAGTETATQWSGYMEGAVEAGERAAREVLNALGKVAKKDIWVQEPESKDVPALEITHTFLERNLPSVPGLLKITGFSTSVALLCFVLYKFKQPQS
Experimental: From the mice of Example 2, the level of MAO (MAO-A and MAO-B) inhibition was determined using ^14C-Labeled 2-phenylethylamine and 5-hydroxytryptamine as substrates.
The MAO enzyme obtained from a homogenate of rat brain in 0.3M sucrose, which was centrifuged at 600 g for 15 minutes. The supernatant is diluted appropriately in 0.05M phosphate buffer, and pre-incubated with serial dilutions of test compounds for 20 minutes at 37° C. ^14C-Labeled substrates (2-phenylethylamine, hereinafter PEA; 5-hydroxytryptamine, hereinafter 5-HT) are then added, and the incubation continued for a further 20 minutes (PEA), or 30-45 minutes (5-HT). Substrate concentrations used are 50 μM (PEA) and 1 mM (5-HT). In the case of PEA, enzyme concentration is chosen so that not more than 10% of the substrate is metabolized during the course of the reaction. Deaminated products are extracted into toluene-ethyl acetate (1:1 v/v) containing 0.6% (w/v) 2,5-diphenyloxazole (ppo) prior to determination by liquid scintillation counting. Radioactivity in the eluate indicates the production of neutral and acidic metabolites formed as a result of MAO activity. Activity of MAO in the sample is expressed as a percentage of control activity in the absence of inhibitors after subtraction of appropriate blank values. The activity determined using PEA as substrate is referred to as MAO-B, and that determined using 5-HT as MAO-A. Concentrations of inhibitor producing 50% inhibition of substrate metabolism (IC50) are calculated from the inhibition curves.

[3] = 51 and 70.1 mg/kg/day, doses effective in ameliorating EAE

For `C#CCN[C@@H]1CCc2ccc(OC(=O)N(C)CC)cc21` [Ladostigil, R(+)-6-(N-methyl,N-ethyl-carbamoyloxy)-N′-propargyl-1-aminoindan], the “Weight of EAE mice” value ([1]; day 2 after induction, ladostigil salt 10.2 mg/kg gavage daily) was 18.1 ± 1.0 g, the “Weight of EAE mice” value ([1]; day 2 after induction, ladostigil salt 25.5 mg/kg gavage daily) was 18.2 ± 0.8 g and the “Weight of EAE mice” value ([1]; day 2 after induction, ladostigil salt 51 mg/kg gavage daily) was 18.2 ± 0.9 g. For the same compound, the “Weight of EAE mice” value ([1]; day 2 after induction, ladostigil salt 70.1 mg/kg gavage daily) was 18.5 ± 0.8 g, the “Weight of EAE mice” value ([1]; day 14 after induction, ladostigil salt 10.2 mg/kg gavage daily) was 16.0 ± 1.7 g and the “Weight of EAE mice” value ([1]; day 14 after induction, ladostigil salt 25.5 mg/kg gavage daily) was 15.9 ± 1.7 g. The “Weight of EAE mice” value ([1]; day 14 after induction, ladostigil salt 51 mg/kg gavage daily) was 15.6 ± 1.6 g, the “Weight of EAE mice” value ([1]; day 14 after induction, ladostigil salt 70.1 mg/kg gavage daily) was 15.9 ± 1.4 g and the “Weight of EAE mice” value ([1]; day 30 after induction, ladostigil salt 10.2 mg/kg gavage daily) was 17.6 ± 2.5 g. For the same compound, the “Weight of EAE mice” value ([1]; day 30 after induction, ladostigil salt 25.5 mg/kg gavage daily) was 17.8 ± 1.4 g, the “Weight of EAE mice” value ([1]; day 42 after induction, ladostigil salt 10.2 mg/kg gavage daily) was 17.5 ± 2.9 g and the “Weight of EAE mice” value ([1]; day 42 after induction, ladostigil salt 25.5 mg/kg gavage daily) was 17.6 ± 1.7 g. The “Weight compared with positive control” value ([1]; highest dose of ladostigil, day 30) was “comparable with the positive control”, the “inhibition of AChE in blood” value [2, 3] was 60-65% and the “inhibition of AChE in brain” value [2, 3] was 47-52%. For the same compound, the “Blood AChE U/ml” value ([2]; 10.2 mg/kg salt) was 0.85 +/− 0.17 U/ml, the “Blood AchE % inhibition” value ([2]; 10.2 mg/kg salt) was 37.4* % and the “Blood AChE U/ml” value ([2]; 25.5 mg/kg salt) was 0.73 +/− 0.12 U/ml. For the same compound, the “Blood AchE % inhibition” value ([2]; 25.5 mg/kg salt) was 46.3* %, the “Blood AChE U/ml” value ([2]; 51 mg/kg salt) was 0.54 +/− 0.1 U/ml and the “Blood AchE % inhibition” value ([2]; 51 mg/kg salt) was 60.2* %. The “Blood AChE U/ml” value ([2]; 70.1 mg/kg salt) was 0.48 +/− 0.1 U/ml, the “Blood AchE % inhibition” value ([2]; 70.1 mg/kg salt) was 64.9* % and the “Brain AChE U/g (Total ChE)” value ([2]; 10.2 mg/kg salt) was 8.77 +/− 1.23 U/g. For the same compound, the “Brain AchE % inhibition” value ([2]; 10.2 mg/kg salt) was 13.4%, the “Brain AChE U/g (Total ChE)” value ([2]; 25.5 mg/kg salt) was 7.42 +/− 1.29 U/g and the “Brain AchE % inhibition” value ([2]; 25.5 mg/kg salt) was 26.8* %. The “Brain AChE U/g (Total ChE)” value ([2]; 51 mg/kg salt) was 5.41 +/− 0.6 U/g, the “Brain AchE % inhibition” value ([2]; 51 mg/kg salt) was 46.6* % and the “Brain AChE U/g (Total ChE)” value ([2]; 70.1 mg/kg salt) was 4.85 +/− 0.65 U/g. The “Brain AchE % inhibition” value ([2]; 70.1 mg/kg salt) was 52.2* %, the MAO-A inhibition (MAO-A; 51 and 70.1 mg/kg/day, brain) was 55-60% and the MAO-A activity dpm (MAO-A; brain of EAE mice, 10.2 mg/kg) was 3702 +/− 119 dpm. The MAO-A activity dpm (MAO-A; brain of EAE mice, 25.5 mg/kg) was 2672 +/− 128 dpm, the MAO-A activity dpm (MAO-A; brain of EAE mice, 51 mg/kg) was 1822 +/− 115 dpm and the MAO-A activity dpm (MAO-A; brain of EAE mice, 70.1 mg/kg) was 1621 +/− 158 dpm. The inhibition at 10.2 mg/kg (MAO-A; mouse, brain of EAE mice, 10.2 mg/kg) was 9%, the inhibition at 25.5 mg/kg (MAO-A; mouse, brain of EAE mice, 25.5 mg/kg) was 34% and the inhibition at 51 mg/kg (MAO-A; mouse, brain of EAE mice, 51 mg/kg) was 55%. For the same compound, the inhibition at 70.1 mg/kg (MAO-A; mouse, brain of EAE mice, 70.1 mg/kg) was 60%.
